Measured values published in PubChem BioAssay AID2488 (The Scripps Research Institute Molecular Screening Center, 2010).
pIC50: −log10 of the molar value. The source made the active and inactive calls.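 How the source made its calls: active means IC50 at or below 10 µM; inactive means IC50 above 10 µM.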

These compounds were tested against HCV core protein (core106) dimerization, Hepatitis C virus (assay: core106 dimer disruption concentration response – biochemical, TR-FRET, dose response, powder samples, late-stage follow-up (AID 2488)). Details: GST/Flag-core106 dimerization, TR-FRET HTRF.
With `COCCN(C(=O)COC(=O)c1cc2c(s1)CCC2)c1c(N)n(Cc2ccccc2)c(=O)[nH]c1=O` the IC50 was “inactive”. `CCN(CC(=O)Nc1c(F)cccc1F)C(=O)/C=C/c1ccc2ccccc2n1` was tested, and the IC50 was “inactive”. In the case of `CCCCCC#CCC#CCC#CCC#CCCCC(=O)O`, the IC50 was > 49.8 µM (inactive). For `Cc1ccc(Cc2c(C)nc3nc(SCC(=O)NCCCN4CCCCCC4)nn3c2C)cc1`, the pIC50 was 5.44. `CC1=C(/C=C/C(C)=C/C=C/C(C)=C/C=C/C=C(C)/C=C/C=C(C)/C=C/C2=C(C)CCCC2(C)C)C(C)(C)CCC1` was tested, and the IC50 was > 49.8 µM (inactive). `COc1ccc(NC(=O)CN(C)C(=O)c2cc3c(s2)CCC3)cc1` was tested, and the IC50 was “inactive”. In the case of `O=C(/C=C/c1ccc(Br)o1)OCc1nc2ccsc2c(=O)[nH]1`, the IC50 was > 49.8 µM (inactive). `Cc1ccccc1N1C(=O)/C(=C/c2ccco2)C(=O)NC1=S` was tested, and the IC50 was “inactive”.
